The values below come from patent US11311043B2, “Preparation of glucan-based shell-core structure carrier material and its application thereof” (Jiangnan University, priority 2018, dated 2022).

Data set [1] in a line: Biological stability by oxidation rate POV (potassium thiocyanate peroxide value method). The class given is physicochemical. The note with it: conjugated linoleic acid carried; stability from maximum peroxide value (POV). How it is done: To better realize the present invention, biological stability is characterized by determining the oxidation rate POV (peroxide value) by applying a potassium thiocyanate POV determining method. POV is calculated through the formula below: […]
c and c0 are the mass of iron in a test sample and a blank sample; m is the mass of CLA; 2 is a conversion factor; and 55.84 is the relative atomic mass of iron. The degree of oxidation of pure nutritional factors serves as control, and the maximum values of the amount of peroxide (POV) in the control and the material are calculated and compared. POV is the amount of peroxide in a first stage product obtained after fat oxidation. Because it cannot be excluded that a small amount of peroxide continues to decompose into small molecular substances under an oxidizing environment, the stability is characterized by: Stability[…](100−100 g CLA maximum value of the amount of peroxide generated by oxidation)/100*100%.

The next data set deals with Intestinal cell. The data set can be described thus: Intestinal cell experiment: hydrogen peroxide irritation, cell activity by MTT method. The class given is cell-based. To be noted: 2 mM hydrogen peroxide for 2 h, then cultured 4 h. The protocol:
Cell experiment: Intestinal cell experiment is performed on a carrying complex. 100 μL of a carrying material-nutritional factor complex dissolved solution is added to a cell culture solution, 2 mM of a hydrogen peroxide solution is added for irritating cells for 2 h, and the cells are continued to be cultured for 4 h. Cell activity is detected by an MTT method.

Turning to conjugated linoleic acid [Control 1], the Biological stability in data set [1] is 58.2%.
In the case of `COC1=C(OC)C(=O)C(C/C=C(\C)CC/C=C(\C)CC/C=C(\C)CC/C=C(\C)CC/C=C(\C)CC/C=C(\C)CC/C=C(\C)CC/C=C(\C)CC/C=C(\C)CCC=C(C)C)=C(C)C1=O` [Coenzyme Q10, coenzyme Q10], the Cell activity % in the data set on Intestinal cell (1 μg/ml) turned out to be 92 ± 3.4%; in the data set on Intestinal cell (10 μg/ml), 97 ± 2.6%.
